Earlier results, collected in PubChem BioAssay AID1259409 (Chemical Carcinogenesis Research Information System (CCRIS), 2018).

Tested on: rodent chemically induced tumor inhibition, incidence and multiplicity
Assay: CCRIS tumor inhibitor studies

## CC1=C(/C=C/C(C)=C/C=C/C(C)=C/C(=O)NCC(C)O)C(C)(C)CCC1 (stereo unspecified)
Carcinogen: N-BUTYL-N-(4-HYDROXYBUTYL)NITROSAMINE, 3817-11-6, Dose [Inhibitor]: 1.5 MMOL/KG DIET DAILY FOR 108 D STARTING ONE WK AFTER THE FINAL CARCINOGEN DOSE (STUDY DURATION: 171 D), Route [Inhibitor]: ORAL, Species: MOUSE, Strain/Sex: BDF/MALE, Target Tissue: Type of Lesion: URINARY BLADDER: TRANSITIONAL CELL CARCINOMA, Dose [Carcinogen]: 5 MG, 2/WK FOR 9 WK, Promoter: NONE USED
  tumour outcome (control, treated, inhibition, significance): 31/55 (56%), 20/55 (36%), 36%, p<0.05
Carcinogen: N-BUTYL-N-(4-HYDROXYBUTYL)NITROSAMINE, 3817-11-6, Dose [Inhibitor]: 1.5 MMOL/KG/D IN DIET FOR 108 D STARTING 1 WK POST CARCINOGEN TREATMENT (STUDY DURATION: 171 D), Route [Inhibitor]: ORAL, Species: MOUSE, Strain/Sex: BDF/MALE, Target Tissue: Type of Lesion: URINARY BLADDER: TRANSITIONAL CELL CARCINOMA, Dose [Carcinogen]: 5 MG 2/WK FOR 9 WK, Promoter: NONE USED
  tumour outcome (control, treated, inhibition, significance): 31/55 (56%), 20/55 (36%), 36%, p<0.05
Carcinogen: N-NITROSOBIS(2-OXOPROPYL)AMINE, 60599-38-4, Dose [Inhibitor]: 0.25 MMOL/KG OF DIET FOR 364 D STARTING 2 WK AFTER LAST CARCINOGEN DOSE (STUDY DURATION: 55 WK), Route [Inhibitor]: ORAL, Species: HAMSTER, Strain/Sex: SYRIAN/FEMALE, Target Tissue: Type of Lesion: LIVER: CARCINOMA, Dose [Carcinogen]: 20 MG/KG INJECTION GIVEN TWICE 1 WK APART, Promoter: NONE USED
  tumour outcome (control, treated, inhibition, significance): 5%, 19%, -280%, not calculated
Carcinogen: N-NITROSOBIS(2-OXOPROPYL)AMINE, 60599-38-4, Dose [Inhibitor]: 0.25 MMOL/KG OF DIET FOR 364 D STARTING 2 WK AFTER LAST CARCINOGEN DOSE (STUDY DURATION: 55 WK), Route [Inhibitor]: ORAL, Species: HAMSTER, Strain/Sex: SYRIAN/FEMALE, Target Tissue: Type of Lesion: PANCREAS: CARCINOMA, Dose [Carcinogen]: 20 MG/KG INJECTION GIVEN TWICE 1 WK APART, Promoter: NONE USED
  tumour outcome (control, treated, inhibition, significance): 38%, 15%, 61%, not calculated
Carcinogen: N-NITROSOBIS(2-OXOPROPYL)AMINE, 60599-38-4, Dose [Inhibitor]: 0.25 MMOL/KG OF DIET FOR 364 D STARTING 2 WK AFTER LAST CARCINOGEN DOSE (STUDY DURATION: 55 WK), Route [Inhibitor]: ORAL, Species: HAMSTER, Strain/Sex: SYRIAN/MALE, Target Tissue: Type of Lesion: LIVER: CARCINOMA, Dose [Carcinogen]: 20 MG/KG INJECTION GIVEN TWICE 1 WK APART, Promoter: NONE USED
  tumour outcome (control, treated, inhibition, significance): 7%, 32%, -357%, not calculated
Carcinogen: N-NITROSOBIS(2-OXOPROPYL)AMINE, 60599-38-4, Dose [Inhibitor]: 0.25 MMOL/KG OF DIET FOR 364 D STARTING 2 WK AFTER LAST CARCINOGEN DOSE (STUDY DURATION: 55 WK), Route [Inhibitor]: ORAL, Species: HAMSTER, Strain/Sex: SYRIAN/MALE, Target Tissue: Type of Lesion: PANCREAS: CARCINOMA, Dose [Carcinogen]: 20 MG/KG INJECTION GIVEN TWICE 1 WK APART, Promoter: NONE USED
  tumour outcome (control, treated, inhibition, significance): 34%, 24%, 29%, not calculated
Carcinogen: N-NITROSOBIS(2-OXOPROPYL)AMINE, 60599-38-4, Dose [Inhibitor]: 0.5 MMOL/KG DIET FOR 357 D STARTING 2 WK AFTER LAST CARCINOGEN DOSE AND INTERRUPTED BY A 1 WK REST PERIOD OF VEHICLE ONL, Route [Inhibitor]: ORAL, Species: HAMSTER, Strain/Sex: SYRIAN/FEMALE, Target Tissue: Type of Lesion: LIVER: HEPATOCELLULAR CARCINOMA, Dose [Carcinogen]: 20 MG/KG INJECTION GIVEN TWICE 1 WK APART, Promoter: NONE USED
  tumour outcome (control, treated, inhibition, significance): 5%, 12%, -140%, not calculated
Carcinogen: N-NITROSOBIS(2-OXOPROPYL)AMINE, 60599-38-4, Dose [Inhibitor]: 0.5 MMOL/KG DIET FOR 357 D STARTING 2 WK AFTER LAST CARCINOGEN DOSE AND INTERRUPTED BY A 1 WK REST PERIOD OF VEHICLE ONL, Route [Inhibitor]: ORAL, Species: HAMSTER, Strain/Sex: SYRIAN/FEMALE, Target Tissue: Type of Lesion: PANCREAS: CARCINOMA, Dose [Carcinogen]: 20 MG/KG INJECTION GIVEN TWICE 1 WK APART, Promoter: NONE USED
  tumour outcome (control, treated, inhibition, significance): 38%, 25%, 34%, not calculated
Carcinogen: N-NITROSOBIS(2-OXOPROPYL)AMINE, 60599-38-4, Dose [Inhibitor]: 0.5 MMOL/KG DIET FOR 357 D STARTING 2 WK AFTER LAST CARCINOGEN DOSE AND INTERRUPTED BY A 1 WK REST PERIOD OF VEHICLE ONL, Route [Inhibitor]: ORAL, Species: HAMSTER, Strain/Sex: SYRIAN/MALE, Target Tissue: Type of Lesion: LIVER: HEPATOCELLULAR CARCINOMA, Dose [Carcinogen]: 20 MG/KG INJECTION GIVEN TWICE 1 WK APART, Promoter: NONE USED
  tumour outcome (control, treated, inhibition, significance): 7%, 12%, -71%, not calculated
Carcinogen: N-NITROSOBIS(2-OXOPROPYL)AMINE, 60599-38-4, Dose [Inhibitor]: 0.5 MMOL/KG DIET FOR 357 D STARTING 2 WK AFTER LAST CARCINOGEN DOSE AND INTERRUPTED BY A 1 WK REST PERIOD OF VEHICLE ONL, Route [Inhibitor]: ORAL, Species: HAMSTER, Strain/Sex: SYRIAN/MALE, Target Tissue: Type of Lesion: PANCREAS: CARCINOMA, Dose [Carcinogen]: 20 MG/KG INJECTION GIVEN TWICE 1 WK APART, Promoter: NONE USED
  tumour outcome (control, treated, inhibition, significance): 34%, 29%, 15%, not calculated

## NCC(CC(=O)O)c1ccc(Cl)cc1 (stereo unspecified)
Carcinogen: N-METHYL-N'-NITRO-N-NITROSOGUANIDINE, 70-25-7, Dose [Inhibitor]: 0, 4 MG/KG IN NACL INJECTED 1/2 D FOR DURATION OF STUDY BEGINNING 1 WK POST CARCINOGEN DOSE (STUDY DURATION: 52 WK), Route [Inhibitor]: INTRAPERITONEAL, Species: RAT, Strain/Sex: WISTAR/MALE, Target Tissue: Type of Lesion: STOMACH: ADENOCARCINOMA, Dose [Carcinogen]: 50 UG/ML IN DRINKING WATER FOR 25 WK, Promoter: NONE USED
  tumour outcome (control, treated, inhibition, significance): 13/19 (68%), 5/20 (25%), 63%, not calculated
Carcinogen: N-METHYL-N'-NITRO-N-NITROSOGUANIDINE, 70-25-7, Dose [Inhibitor]: 0, 8 MG/KG BW 1/2 D FOR 25 WK BEGINNING POST CARCINOGEN TREATMENT (STUDY DURATION: 52 WK), Route [Inhibitor]: SUBCUTANEOUS, Species: RAT, Strain/Sex: WISTAR/MALE, Target Tissue: Type of Lesion: STOMACH: TUMOR, Dose [Carcinogen]: 50 UG/ML IN DRINKING WATER FOR 25 WK, Promoter: NONE USED
  tumour outcome (control, treated, inhibition, significance): 19/20 (95%), 10/20 (50%), 47%, p<0.001
Carcinogen: N-METHYL-N'-NITRO-N-NITROSOGUANIDINE, 70-25-7, Dose [Inhibitor]: 0, 8 MG/KG IN NACL INJECTED 1/2 D FOR DURATION OF STUDY BEGINNING 1 WK POST CARCINOGEN DOSE (STUDY DURATION: 52 WK), Route [Inhibitor]: INTRAPERITONEAL, Species: RAT, Strain/Sex: WISTAR/MALE, Target Tissue: Type of Lesion: STOMACH: ADENOCARCINOMA, Dose [Carcinogen]: 50 UG/ML IN DRINKING WATER FOR 25 WK, Promoter: NONE USED
  tumour outcome (control, treated, inhibition, significance): 13/19 (68%), 5/18 (28%), 59%, not calculated
Carcinogen: N-METHYL-N'-NITRO-N-NITROSOGUANIDINE, 70-25-7, Dose [Inhibitor]: 0, 8 MG/KG/BW SUSPENSION IN OLIVE OIL 1/2 D BEGINNING POST CARCINOGEN TREATMENT AND CONTINUING FOR DURATION OF STUDY (ST, Route [Inhibitor]: SUBCUTANEOUS, Species: RAT, Strain/Sex: WISTAR/MALE, Target Tissue: Type of Lesion: STOMACH: ADENOCARCINOMA, Dose [Carcinogen]: 50 UG/ML IN DRINKING WATER FOR 25 WK, Promoter: NONE USED
  tumour outcome (control, treated, inhibition, significance): 16/20 (80%), 8/20 (40%), 50%, p<0.05

## CC1(C)CC[C@]2(CO)CC[C@]3(C)C(=CC[C@@H]4[C@@]5(C)CC[C@H](O)[C@@](C)(CO)[C@@H]5CC[C@]43C)[C@@H]2C1
Carcinogen: 7,12-DIMETHYLBENZ[A]ANTHRACENE, 57-97-6, Dose [Inhibitor]: 81 NMOL IN 100 µL ACETONE/DMSO (99:1) APPLIED 40 MIN PRIOR TO EACH PROMOTER DOSE (STUDY DURATION: 18 WK), Route [Inhibitor]: DERMAL, Species: MOUSE, Strain/Sex: ICR, Target Tissue: Type of Lesion: SKIN: CARCINOMA, Dose [Carcinogen]: 100 UG ONCE, Promoter: 12-O-TETRADECANOYLPHORBOL-13-ACETATE, 16561-29-8
  tumour outcome (control, treated, inhibition, significance): 100%, 40%, 60%, not calculated

## S=C=Nc1cc2ccccc2c2ccccc12
Carcinogen: BENZO[A]PYRENE, 50-32-8, Dose [Inhibitor]: 0, 5 UMOL IN ACETONE 4 HR PRIOR TO CARCINOGEN DOSE (STUDY DURATION: 20 WK), Route [Inhibitor]: DERMAL, Species: MOUSE, Strain/Sex: STRAIN-A/FEMALE, Target Tissue: Type of Lesion: SKIN: TUMOR, Dose [Carcinogen]: 0.1 UMOL IN ACETONE ONCE, Promoter: 12-O-TETRADECANOYLPHORBOL-13-ACETATE, 16561-29-8
  outcome: 85%, 95%, -12%, not significant at 15 wk; 95%, 95%, 0%, not significant at 20 wk
